Experimental data: US20250090621A1, “METHODS AND COMPOSITIONS FOR THE TREATMENT OF AGE-RELATED MACULAR DEGENERATION” (Stealth BioTherapeutics Inc., priority 2023, published 2025)
Entries after “also recorded” stand apart in the source; their conditions may differ. Residues, ends and D or L forms follow the SMILES beside them.

Test system: patients with at least one eye with dry AMD and GA
Assay: Phase 2 randomized, placebo-controlled, double-masked trial of elamipretide (NCT03891875)
Format: in vivo, human
Protocol: Study design. In this Phase 2, randomized, placebo-controlled, double-masked, multicenter, safety and efficacy trial (ClinicalTrials.gov identifier NCT03891875), patients with at least one eye with dry AMD and GA were included. Visit 1 (screening visit) was performed no more than 14 days before the baseline visit (visit 2, day 1) (FIG. 1). Eligible patients returned for the baseline visit, at which time they were randomized (interactive response system) in a 2:1 ratio to receive either elamipretide 40 mg or placebo administered with a pen injector delivery system as a single daily self-administered subcutaneous injection. This dose was chosen based on the systemic exposure and safety profiles of elamipretide in an earlier trial (Allingham 2022; Mettu 2022). Patients were treated for 48 weeks, with assessments at day 1 and weeks 4, 8, 12, 24, 36, and 48 (visits 2 to 8) plus a final safety follow-up visit 4 weeks after the last day of study treatment (week 52; visit 9). Patient diaries and vial counts were used and reviewed to verify compliance.
Patients—Key inclusion criteria. The original protocol specified that adults≥55 years of age with one eye with dry AMD and GA were eligible for study entry. However, a subsequent amendment to the protocol limited inclusion to patients with noncentral GA. Noncentral GA and area was determined primarily by fundus autofluorescence (FAF) and all noncentral GA lesions were required to be ≥150 μm from foveal center with preserved outer retinal structural details, as confirmed by the central reading center (BIRC, Boston MA). Noncentral GA was required to be ≥0.05 mm^2 and ≤10.16 mm^2 in size, and reside completely within the FAF 30- or 35-degree image. […] The fellow eye was allowed to have AMD with or without GA, MNV, central GA, or no pathology.
Patients—Key exclusion criteria. Key exclusion criteria for study eye included absence of observable hyper-FAF at the margins of the GA (only for lesions 0.25 mm^2), atrophic retinal disease of causality other than AMD including myopia-related maculopathy and monogenetic macular dystrophies including pattern dystrophy and adult-onset Stargardt disease. Presence or diagnosis of exudative AMD or MNV, presence of retinal vein occlusion or vitreous hemorrhage, history of retinal detachment or macular hole, presence of an epiretinal membrane that causes distortion of the retinal contour, vitreomacular traction, or advanced glaucoma in the study eye were also not allowed.
Study objectives and endpoints. The primary efficacy endpoints were changes from baseline in LL BCVA and in square root converted GA area as measured by OCT. Secondary efficacy endpoints included changes in ellipsoid zone integrity, categorical changes from baseline in LL-BCVA, changes from baseline in LL reading acuity (LLRA), BCVA, and GA area as measured by FAF. Additional predefined endpoints included change in center 1-mm and 2-mm mean EZ-RPE thickness, National Eye Institute Visual Function Questionnaire (VFQ-39) score, RA at standard light, visual function by the Low-Luminance Questionnaire (LLQ). For efficacy endpoints, the unit of analysis was study eye; in cases where both eyes are eligible for analysis, the study eye was the eye with the worse LL BCVA as determined at baseline (right eye was the study eye for equal LL BCVA). Ellipsoid zone integrity was measured as previously described on OCT utilizing a machine learning enhanced multi-layer segmentation platform that provided panmacular assessment of the EZ and RPE location (Sirici, et al., Ophthamol Surg Lasers Imaging Retina, 2022; Itoh, et al, Br J Ophthamol, 2016).
The primary safety objective was to evaluate the safety/tolerability of elamipretide. […]

[1] = LS mean change from baseline to week 48, 40 mg SC once daily

Cc1cc(O)cc(C)c1C[C@H](NC(=O)[C@H](N)CCCNC(=N)N)C(=O)N[C@@H](CCCCN)C(=O)N[C@@H](Cc1ccccc1)C(N)=O [elamipretide, H-D-Arg-2′,6′Dmt-Lys-Phe-NH2] (HELM PEPTIDE1{[dR].[Cc1cc(O)cc(C)c1C[C@H](N[*:1])C(=O)[*:2]].K.F.[am]}$$$$V2.0)
LS mean change from baseline to week 48 for macular percentage of tEZa (EZ-RPE thickness of 0 μm) (40 mg SC once daily, OCT, mITT, placebo 6.47% [0.737], P=0.0034): 3.69% | LS mean change from baseline to week 48 for pEZa (EZ-RPE thickness ≤20 μm) (40 mg SC once daily, OCT, mITT, placebo 7.68% [0.969], P=0.0040): 4.10% | square root of GA area progression as measured by OCT (40 mg SC once daily, week 48, mITT, placebo 0.275, P=0.34): 0.312 mm | patients experiencing a ≥2-line gain (≥10 letter) in LL BCVA (40 mg SC once daily, week 48, mITT, placebo 2.1%, P=0.0404): 14.6% | percentage of patients at week 48 experiencing a >1-line gain (40 mg SC once daily, in words, versus placebo): higher compared to placebo | progression of GA area relative to the baseline boundary of total EZ attenuation (48-week trial, in words): did not progress to the baseline boundary of total EZ attenuation | progression of partial EZ attenuation versus placebo (48 weeks, mITT, in words): reduces partial EZ attenuation | progression of total EZ attenuation versus placebo (48 weeks, mITT, in words): significantly less progression of tEZa; also recorded: reduces total EZ attenuation | growth of partial EZ attenuation area during the trial (48 weeks, placebo arm 34%): 15% | growth of total EZ attenuation area (mm^2) during the trial (48 weeks, placebo arm 48%): 26% | reduction in progression of partial EZ attenuation relative to placebo [1]: 47% | reduction in progression of total EZ attenuation relative to placebo [1]: 43% | least squares (LS) mean change from baseline in LL BCVA (elamipretide 40 mg SC once daily, week 48, mITT, study eye, placebo −4.4, P=0.49): −3.0 letters | Early discontinuation, reason: Withdrawal by subject (elamipretide arm n=117, placebo 3 (5.1)): 20 (17.1) n (%) | Early discontinuation, reason: Adverse event (elamipretide arm n=117, placebo 4 (6.8)): 10 (8.5) n (%) | Subjects leaving study early (elamipretide arm n=117, placebo 8 (13.6)): 34 (29.1) n (%) | GA zonal lesion area, change from baseline at Week 48 (mITT n=76, baseline 2.63, placebo 0.99): 1.15 mm^2 | patients who discontinued the study early (of 117 randomized to elamipretide [29%], placebo n=8): 34 patients | early discontinuation due to adverse events (of 117 randomized to elamipretide, placebo 4): 10 patients | early discontinuation due to withdrawal by subject (of 117 randomized to elamipretide, placebo n=3): 20 patients | tEZa zonal lesion area, change from baseline at Week 48 (post hoc, percent attenuation x total macular area on OCT, mITT n=72, baseline 5.39, placebo 2.23, p = 0.04): 1.39 mm^2 | pEZa zonal lesion area, change from baseline at Week 48 (post hoc, percent attenuation x total macular area on OCT, mITT n=72, baseline 9.03, placebo 2.65, p = 0.01): 1.34 mm^2 | progression of the EZ-GA gap (post-hoc, total randomized population, baseline, 24 and 48 weeks, in words, versus placebo): slower rate of progression; also recorded: reduced progression of EZ-GA gap | treatment effect in LL BCVA versus placebo, subgroup with mean center 1 mm EZ-RPE thickness ≥10-micron (post-hoc, week 48, in words): trended towards a treatment effect | categorical improvement in LL BCVA (≥2-line gain) versus placebo (week 48, mITT, in words): significantly more patients experiencing a ≥2-line gain; also recorded: categorical improvement in LL BCVA
